Source: patent EP4752152A1, “STEROID COMPOUND, AND PREPARATION METHOD THEREFOR AND USE THEREOF” (Cholesgen (Shanghai) Co.Ltd., priority 2023, dated 2025)

How the values were obtained:
SREBP pathway = assay: SREBP luciferase reporter gene system (SRE-luciferase assay); assay type: cell-based, human; settings: Huh-7/SRE-luc cells, sterol-deficient medium, 0.01-10 µM
Outline: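 Huh-7 cells stably carrying LDLR promoter-luciferase plus GFP were treated 16 h in sterol-deficient medium (5% lipoprotein-deficient serum, 2 µM lovastatin, 10 µM mevalonic acid) at 0.01–10 µM. Luciferase/GFP ratio measured as pathway activity; inhibition versus DMSO fitted to a four-parameter model for IC50.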

[1] = system: Fatty Acid Synthase (FASN) gene; assay: Inhibition of FASN gene expression (qPCR) in Huh-7 cells; assay type: cell-based, human; settings: Homo sapiens, Huh-7, 16 h, Huh-7 cells, starvation medium, 16 hours, qPCR; class symbols; read-out: FASN IC50
Description: Huh-7 cells (purchased from ATCC) were cultured in DMEM medium (containing 10% fetal bovine serum LONSERA S711-001S) at 37°C in a 5% CO2 incubator. After 24 hours, the original medium was aspirated and replaced with DMEM starvation medium (containing 5% lipoprotein deficient serum (LPDS), 2 µM lovastatin, and 10 µM mevalonate). The control group was treated with dimethyl sulfoxide (DMSO), while the compound treatment groups were treated with different concentrations of compounds. The highest concentration of the compound was 3000 nM, with 3-fold dilutions, totaling 5 concentrations. The cells were cultured for 16 hours. Cell lysis was performed, followed by reverse transcription from cells to cDNA, and qPCR was performed to detect the expression of the SREBP target gene Fatty Acid Synthase (FASN) gene (FASN gene forward primer sequence: 5'-[…]-3', reverse primer sequence: 5'-[…]-3'). The IC50 was calculated. The test data for each test compound were analyzed using Prism software (with the DMSO-treated group as the reference to calculate the compound inhibition rate, fitted using the Prism log(inhibitor) vs. responseVariable slope (four-parameter) model, calculation formula: Y = Bottom + (Top - Bottom)/(1 + 10^((LogIC50 - X) × HillSlope))), to obtain the IC50 parameters of the compounds. Table 4: Inhibition results of FASN gene expression by compounds from some examples

Structure (SMILES)	IC50 (SREBP pathway; Homo sapiens, Huh-7, 16 h) [µM]	IC50 [1] [nM]	IC50 (SREBP pathway; 16 hours) [µM]
COc1cc(F)nc(F)c1[C@H](O)CCC[C@@H](C)[C@H]1CC[C@H]2[C@H]3[C@H](CC[C@]12C)[C@@]1(C)CC[C@H](O)[C@H](O)[C@@H]1CC3(F)F (single isomer, unassigned) [Compound 262]	0.017	< 200	–
C[C@H](CCCC(O)c1ccc(F)cc1)[C@H]1CC[C@H]2C3=C(F)C[C@H]4[C@@H](O)[C@@H](O)CC[C@]4(C)[C@H]3CC[C@]12C (stereo partly drawn) [Compound 101, (1R,3aR,5aR,6R,7S,9aR,9bR,11aR)-4-fluoro-1-[(2R)-6-(4-fluorophenyl)-6-hydroxyhexan-2-yl]-9a,11a-dimethyl-2,3,3a,5,5a,6,7,8,9,9a,9b,10,11,11a-tetradecahydro-1H-cyclopenta[1,2-a]phenanthrene-6,7-diol]	0.298	200 to 500	–
C[C@H](CCC[C@@H](O)c1nc2cnccc2n1C)[C@H]1CC[C@H]2[C@H]3[C@H](CC[C@]12C)[C@@]1(C)CC[C@H](O)[C@H](O)[C@@H]1CC3(F)F (stereo in doubt) [Compound 326, (1R,3aS,3bS,5aR,6R,7S,9aR,9bS,11aR)-4,4-difluoro-1-[(2R,6R)-6-hydroxy-6-(1-methylimidazo[5,4-c]pyridin-2-yl)hexan-2-yl]-9a,11a-dimethylhexadecahydro-1H-cyclopenta[1,2-a]phenanthrene-6,7-diol]	0.011	< 200	–
COc1nc(F)ccc1C(O)CCC[C@@H](C)[C@H]1CC[C@H]2C3=C(F)C[C@H]4[C@@H](O)[C@@H](O)CC[C@]4(C)[C@H]3CC[C@]12C (stereo partly drawn) [Compound 107, (1R,3aR,5aR,6R,7S,9aR,9bR,11aR)-4-fluoro-1-[(2R)-6-(6-fluoro-2-methoxypyridin-3-yl)-6-hydroxyhexan-2-yl]-9a,11a-dimethyl-2,3,3a,5,5a,6,7,8,9,9a,9b,10,11,11a-tetradecahydro-1H-cyclopenta[1,2-a]phenanthrene-6,7-diol]	0.0777	200 to 500	–
CCOc1nc(F)ccc1[C@@H](O)CCC[C@@H](C)[C@H]1CC[C@H]2[C@H]3[C@H](CC[C@]12C)[C@@]1(C)CC[C@H](O)[C@H](O)[C@@H]1CC3(F)F (single isomer, unassigned) [Compound 289]	0.342	< 200	–
C[C@H](CCCC(O)c1cccnc1)[C@H]1CC[C@H]2[C@H]3[C@H](CC[C@]12C)[C@@]1(C)CC[C@H](O)[C@H](O)[C@@H]1CC3(F)F (stereo partly drawn) [Compound 54, (1R,3aS,3bS,5aR,6R,7S,9aR,9bS,11aR)-4,4-difluoro-1-[(2R)-6-hydroxy-6-(pyridin-3-yl)hexan-2-yl]-9a,11a-dimethylhexadecahydro-1H-cyclopenta[1,2-a]phenanthrene-6,7-diol]	0.35	200 to 500	–
C[C@H](CCCC(O)c1nc2cnccc2n1C)[C@H]1CC[C@H]2[C@H]3[C@H](CC[C@]12C)[C@@]1(C)CC[C@H](O)[C@H](O)[C@@H]1CC3(F)F (stereo partly drawn) [Compound 311, (1R,3aS,3bS,5aR,6R,7 S,9aR,9bS,11aR)-4,4-Difluoro-1-[(2R)-6-hydroxy-6-(1-methylimidazo[5,4-c]pyridin-2-yl)hexan-2-yl]-9a,11a-dimethylhexadecahydro-1H-cyclopenta[1,2-a]phenanthrene-6,7-diol]	0.072	< 200	–
COc1nc(F)ccc1[C@H](O)CCC[C@@H](C)[C@H]1CC[C@H]2[C@H]3[C@H](CC[C@]12C)[C@@]1(C)CC[C@H](O)C(=O)[C@@H]1CC3(F)F (single isomer, unassigned) [Compound 260]	0.03	< 200	–
COc1cc(F)c([C@H](O)CCC[C@@H](C)[C@H]2CC[C@H]3[C@H]4[C@H](CC[C@]23C)[C@@]2(C)CC[C@H](O)[C@H](O)[C@@H]2CC4(F)F)c(F)c1Br (single isomer, unassigned) [Compound 199]	0.152	200 to 500	–
C[C@H](CCCC(O)c1ccc(F)cc1)[C@H]1CC[C@H]2[C@H]3[C@H](CC[C@]12C)[C@@]1(C)CC[C@H](O)[C@H](O)[C@@H]1CC3(F)F (stereo partly drawn) [Compound 100, (1R,3aS,3bS,5aR,6R,7S,9aR,9bS,11aR)-4,4-difluoro-1-[(2R)-6-(4-fluorophenyl)-6-hydroxyhexan-2-yl]-9a,11a-dimethylhexadecahydro-1H-cyclopenta[1,2-a]phenanthrene-6,7-diol]	0.179	200 to 500	–
COc1ccc(C(O)CCC[C@@H](C)[C@H]2CC[C@H]3[C@H]4[C@H](CC[C@]23C)[C@@]2(C)CC[C@H](O)[C@H](O)[C@@H]2CC4(F)F)c(F)c1 (stereo partly drawn) [Compound 67, (1R,3aS,3bS,5aR,6R,7S,9aR,9bS,11aR)-4,4-difluoro-1-[(2R)-6-(2-fluoro-4-methoxyphenyl)-6-hydroxyhexan-2-yl]-9a,11a-dimethylhexadecahydro-1H-cyclopenta[1,2-a]phenanthrene-6,7-diol]	0.203	200 to 500	–
COc1cc(F)cc(OC)c1C(O)CCC[C@@H](C)[C@H]1CC[C@H]2[C@H]3[C@H](CC[C@]12C)[C@@]1(C)CC[C@H](O)[C@H](O)[C@@H]1CC3(F)F (single isomer, unassigned) [Compound 222, (1R,3aS,3bS,5aR,6R,7S,9aR,9bS,11aR)-4,4-difluoro-1-[(2R,6S)-6-(4-fluoro-2,6-dimethoxyphenyl)-6-hydroxyhexan-2-yl]-9a,11a-dimethylhexadecahydro-1H-cyclopenta[1,2-a]phenanthrene-6,7-diol or (1R,3aS,3bS,5aR,6R,7S,9aR,9bS,11aR)-4,4-difluoro-1-[(2R,6R)-6-(4-fluoro-2,6-dimethoxyphenyl)-6-hydroxyhexan-2-yl]-9a,11a-dimethylhexadecahydro-1H-cyclopenta[1,2-a]phenanthrene-6,7-diol]	0.137	–	–
C[C@H](CCC[C@H](O)c1nn(C)c2ccccc12)[C@H]1CC[C@H]2[C@H]3[C@H](CC[C@]12C)[C@@]1(C)CC[C@H](O)[C@H](O)[C@@H]1CC3(F)F [Compound 323, (1R,3aS,3bS,5aR,6R,7S,9aR,9bS,11aR)-4,4-difluoro-1-[(2R,6S)-6-hydroxy-6-(1-methylindazol-3-yl)hexan-2-yl]-9a,11a-dimethylhexadecahydro-1H-cyclopenta[1,2-a]phenanthrene-6,7-diol]	0.262	–	–
COc1cccc(F)c1C(O)CCCC(C)C1CCC2C3=C(F)CC4C(O)C(O)CCC4(C)C3CCC21C (single isomer, unassigned) [Compound 164]	–	–	0.295
C[C@H](CCC[C@H](O)c1cc2ccccc2o1)[C@H]1CC[C@H]2[C@H]3[C@H](CC[C@]12C)[C@@]1(C)CC[C@H](O)[C@H](O)[C@@H]1CC3(F)F [Compound 316, (1R,3aS,3bS,5aR,6R,7S,9aR,9bS,11aR)-1-[(2R,6S)-6-(1-benzofuran-2-yl)-6-hydroxyhexan-2-yl]-4,4-difluoro-9a,11a-dimethylhexadecahydro-1H-cyclopenta[1,2-a]phenanthrene-6,7-diol]	0.145	–	–
COc1cc(F)c([C@@H](O)CCC[C@@H](C)[C@H]2CC[C@H]3[C@H]4[C@H](CC[C@]23C)[C@@]2(C)CC[C@H](O)[C@H](O)[C@@H]2CC4(F)F)c(F)n1 (single isomer, unassigned) [Compound 238]	0.289	–	–
COc1cc(F)c(C(O)CCC[C@@H](C)[C@H]2CC[C@H]3[C@H]4[C@H](CC[C@]23C)[C@@]2(C)CC[C@H](O)[C@H](O)[C@@H]2CC4(F)F)c(F)c1 (single isomer, unassigned) [Compound 205, (1R,3aS,3bS,5aR,6R,7S,9aR,9bS,11aR)-1-[(2R,6R)-6-(2,6-difluoro-4-methoxyphenyl)-6-hydroxyhexan-2-yl]-4,4-difluoro-9a,11a-dimethylhexadecahydro-1H-cyclopenta[1,2-a]phenanthrene-6,7-diol or (1R,3aS,3bS,5aR,6R,7S,9aR,9bS,11aR)-1-[(2R,6S)-6-(2,6-difluoro-4-methoxyphenyl)-6-hydroxyhexan-2-yl]-4,4-difluoro-9a,11a-dimethylhexadecahydro-1H-cyclopenta[1,2-a]phenanthrene-6,7-diol]	0.107	–	–
COc1nc(F)ccc1[C@@](C)(O)CCC[C@@H](C)[C@H]1CC[C@H]2[C@H]3[C@H](CC[C@]12C)[C@@]1(C)CC[C@H](O)[C@H](O)[C@@H]1CC3(F)F [Compound 309, (1R,3aS,3bS,5aR,6R,7S,9aR,9bS,11aR)-4,4-difluoro-1-[(2R,6S)-6-(6-fluoro-2-methoxypyridin-3-yl)-6-hydroxyheptan-2-yl]-9a,11a-dimethylhexadecahydro-1H-cyclopenta[1,2-a]phenanthrene-6,7-diol]	0.143	–	–
COc1nc(F)ccc1C(C)(O)CCC[C@@H](C)[C@H]1CC[C@H]2[C@H]3[C@H](CC[C@]12C)[C@@]1(C)CC[C@H](O)[C@H](O)[C@@H]1CC3(F)F (stereo partly drawn) [Compound 308, (1R,3aS,3bS,5aR,6R,7S,9aR,9bS,11aR)-4,4-difluoro-1-[(2R)-6-(6-fluoro-2-methoxypyridin-3-yl)-6-hydroxyheptan-2-yl]-9a,11a-dimethylhexadecahydro-1H-cyclopenta[1,2-a]phenanthrene-6,7-diol]	0.112	–	–
